Values joined by “and” are separate entries in the source; they are usually repeats but may differ in a detail not shown here. Equal values may be shown once.
Columns and labels:
PAT [1] = target: T1, PAT (Penicillium chrysogenum, UniProt P15802); test: Substrate specificity of purified PAT (fraction AL 278/2), specific enzyme activity by HPLC; type: biochemical, Penicillium chrysogenum P2/ATCC 48271
[2] = system: Micrococcus luteus ATCC 9341/BC 85; test: Agar diffusion test of penicillin standards (inhibition zone diameter); type: cell-based
PAT [3] = target: T1, PAT; test: Penicillin V cleavage by AS-Präzipitat, residual penicillin by agar diffusion test; type: biochemical, Penicillium chrysogenum P2/ATCC 48271
Method: (§1) Die, wie in Beispiel 2 beschrieben, hergestellte Enzymrohpräzipitation wird im mikrobiologischen Agardiffusionstest hinsichtlich Transacylierung von 6-APA bzw. Isopenicillin N mit PaCoA und Spaltung von Kalium Penicillin V mit bzw. ohne Inhibitorzusatz folgendermaßen getestet: Testkeim: Micrococcus luteus ATCC 9341/BC 85, 0,5% Einsaat Testmedium: Antibiotic Medium 1 (DIFCO), 110 ml Testplatte: Nunc 243x243x18 mm Probe: 50 µl pro Näpfchen (6 mm Durchmesser) Inkubation: 37°, 15 Stunden Enzym: AS-Präzipitat (hergestellt wie in Beispiel 2 beschrieben): 1 ml zentrifugiert (20.000 Upm/10 min), Überstand verworfen, Pellet in 20 ml RP + Z resuspendiert. RP + Z: 0,1 M Phosphatpuffer pH 7,5 + 1 mM DTT + 10 mM MgCl₂

PAT [4] = target: T1, PAT; test: Microbiological agar diffusion test (Micrococcus luteus ATCC 9341/BC 85) of transacylation of Isopenicillin N with PaCoA by enzyme preparation AS-Präzipitat; type: biochemical, Penicillium chrysogenum P2/ATCC 48271
Method: as §1
Sofort bzw. nach 7, 30 und 60 Minuten Inkubationszeit werden 20 µl Aliquots der Ansätze entnommen, 1:5 mit 50% Ethanol (Stoppen der Enzymreaktion) verdünnt und im Agardiffusionstest auf Penicillingehalt getestet.

[5] = labelled substance = Acylakzeptor, Acyldonator PaCoA
[6] = labelled substance = Acylakzeptor, Acyldonator PeCoA
[7] = labelled substance = Acyldonator, Acylakzeptor H₂O, Produkt 6-APA

T1 sequence (P15802 103-357 limits assumed): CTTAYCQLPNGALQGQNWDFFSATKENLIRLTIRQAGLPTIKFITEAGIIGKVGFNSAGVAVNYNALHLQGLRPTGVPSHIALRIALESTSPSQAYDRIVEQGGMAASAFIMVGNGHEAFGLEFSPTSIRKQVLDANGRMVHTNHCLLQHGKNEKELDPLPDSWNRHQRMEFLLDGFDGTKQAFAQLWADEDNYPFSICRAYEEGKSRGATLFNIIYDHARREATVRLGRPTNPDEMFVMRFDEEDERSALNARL
T1 sequence (P15802 1-102 limits assumed): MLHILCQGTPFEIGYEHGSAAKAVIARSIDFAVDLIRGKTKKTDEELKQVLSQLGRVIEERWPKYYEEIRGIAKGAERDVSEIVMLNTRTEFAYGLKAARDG

## CC(=O)OCC1=C(C(=O)O)N2C(=O)[C@@H](N)[C@H]2SC1 [7-ACA]
PAT [1]; [5]
  mittels HPLC bestimmte spezifische Enzymaktivität (mU/mg Protein) A1 278/2: 0 mU/mg Protein

## Penicillin
[2]; Micrococcus luteus ATCC 9341, relative to 6-APA
  antibakterielle Sensitivität gegenüber Penicillin als gegenüber 6-APA: mehr als drei Zehnerpotenzen

## CC1(C)S[C@@H]2[C@H](NC(=O)COc3ccccc3)C(=O)N2[C@H]1C(=O)O [Penicillin V]
[2]; Micrococcus luteus, ATCC9341, 15 h, Penicillin V Std. 0.25 µg/ml, read-out: HH ⌀ mm
  zone of inhibition at 0.25 µg/mL: 9.7 mm
[2]; Micrococcus luteus, ATCC9341, 15 h, Penicillin V Std. 0.5 µg/ml, read-out: HH ⌀ mm
  zone of inhibition at 0.5 µg/mL: 17.6 mm
[2]; Micrococcus luteus, ATCC9341, 15 h, Penicillin V Std. 1.0 µg/ml, read-out: HH ⌀ mm
  zone of inhibition at 1 µg/mL: 21.7 mm
[2]; Micrococcus luteus, ATCC9341, 15 h, Penicillin V Std. 1.5 µg/ml, read-out: HH ⌀ mm
  zone of inhibition at 1.5 µg/mL: 24 mm
[2]; Micrococcus luteus, ATCC9341, 15 h, Penicillin V Std. 2.0 µg/ml, read-out: HH ⌀ mm
  zone of inhibition at 2 µg/mL: 25.3 mm
[2]; Penicillin V Std. 0.25 µg/ml
  HH ⌀ mm: 11.9 mm
[2]; Penicillin V Std. 0.5 µg/ml
  HH ⌀ mm: 17.8 mm and 18.4 mm
[2]; Penicillin V Std. 1.0 µg/ml
  HH ⌀ mm: 23.4 mm
[2]; Penicillin V Std. 1.5 µg/ml
  HH ⌀ mm: 24.7 mm
[2]; Penicillin V Std. 2.0 µg/ml
  HH ⌀ mm: 27.4 mm
PAT [1]; [6]
  mittels HPLC bestimmte spezifische Enzymaktivität (mU/mg Protein) A1 278/2: 99 mU/mg Protein
PAT [1]; [7]
  mittels HPLC bestimmte spezifische Enzymaktivität (mU/mg Protein) A1 278/2: 75 mU/mg Protein

## CC1(C)S[C@@H]2[C@H](NC(=O)Cc3ccccc3)C(=O)N2[C@H]1C(=O)O [Penicillin G]
PAT [1]; [5]
  mittels HPLC bestimmte spezifische Enzymaktivität (mU/mg Protein) A1 278/2: 25 mU/mg Protein
PAT [1]; [7]
  mittels HPLC bestimmte spezifische Enzymaktivität (mU/mg Protein) A1 278/2: 17 mU/mg Protein

## CC1(C)S[C@@H]2[C@H](NC(=O)COc3ccccc3)C(=O)N2[C@H]1C(=O)O [Kalium Penicillin V]
[2]; Penicillin V Std. 0.25 µg/ml
  HH ⌀ mm: 11.9 mm
[2]; Penicillin V Std. 0.5 µg/ml
  HH ⌀ mm: 18.4 mm
[2]; Penicillin V Std. 1.0 µg/ml
  HH ⌀ mm: 23.4 mm
[2]; Penicillin V Std. 1.5 µg/ml
  HH ⌀ mm: 24.7 mm
[2]; Penicillin V Std. 2.0 µg/ml
  HH ⌀ mm: 27.4 mm
PAT [3]; a) ohne Inhibitor, 7′
  Spaltung von Kalium Penicillin V (HH ⌀ mm): 21.8 mm
PAT [3]; a) ohne Inhibitor, 30′
  Spaltung von Kalium Penicillin V (HH ⌀ mm): 0 mm
PAT [3]; a) ohne Inhibitor, 60′
  Spaltung von Kalium Penicillin V (HH ⌀ mm): 0 mm
PAT [3]; a) ohne Inhibitor, s
  Spaltung von Kalium Penicillin V (HH ⌀ mm): 25.7 mm
PAT [3]; b) + 2 mM Jodacetamid, 7′
  Spaltung von Kalium Penicillin V (HH ⌀ mm): 23.1 mm
PAT [3]; b) + 2 mM Jodacetamid, 30′
  Spaltung von Kalium Penicillin V (HH ⌀ mm): 0 mm
PAT [3]; b) + 2 mM Jodacetamid, 60′
  Spaltung von Kalium Penicillin V (HH ⌀ mm): 0 mm
PAT [3]; b) + 2 mM Jodacetamid, s
  Spaltung von Kalium Penicillin V (HH ⌀ mm): 25.7 mm
PAT [3]; c) + 2 mM Ethylmaleinimid, 7′
  Spaltung von Kalium Penicillin V (HH ⌀ mm): 23.0 mm
PAT [3]; c) + 2 mM Ethylmaleinimid, 30′
  Spaltung von Kalium Penicillin V (HH ⌀ mm): 0 mm
PAT [3]; c) + 2 mM Ethylmaleinimid, 60′
  Spaltung von Kalium Penicillin V (HH ⌀ mm): 0 mm
PAT [3]; c) + 2 mM Ethylmaleinimid, s
  Spaltung von Kalium Penicillin V (HH ⌀ mm): 25.0 mm
PAT [3]; d) + 2 mM PMSF, 7′
  Spaltung von Kalium Penicillin V (HH ⌀ mm): 0 mm
PAT [3]; d) + 2 mM PMSF, 30′
  Spaltung von Kalium Penicillin V (HH ⌀ mm): 0 mm
PAT [3]; d) + 2 mM PMSF, 60′
  Spaltung von Kalium Penicillin V (HH ⌀ mm): 0 mm
PAT [3]; d) + 2 mM PMSF, s
  Spaltung von Kalium Penicillin V (HH ⌀ mm): 25.3 mm

## CC1=C(C(=O)O)N2C(=O)[C@@H](N)[C@H]2SC1 [7-ADCA, 7-Amino-3-desacetoxycephalosporansäure]
PAT [1]; [5]
  mittels HPLC bestimmte spezifische Enzymaktivität (mU/mg Protein) A1 278/2: 49 mU/mg Protein

## CC1(C)S[C@@H]2[C@H](NC(=O)CCC[C@H](N)C(=O)O)C(=O)N2[C@H]1C(=O)O [Isopenicillin N Nr. 36, Isopenicillin N]
[2]; Isopenicillin N Std. 12.5 µg/ml
  HH ⌀ mm: 18.4 mm
[2]; Isopenicillin N Std. 25 µg/ml
  HH ⌀ mm: 22.1 mm
[2]; Isopenicillin N Std. 50 µg/ml
  HH ⌀ mm: 24.5 mm
PAT [4]; a) ohne Inhibitor, 7′, listed as Nr. 36
  Transacylierung von Isopenicillin N (#28 u 36) mit PaCoA (HH ⌀ mm): 28.3 mm
PAT [4]; a) ohne Inhibitor, 30′, listed as Nr. 36
  Transacylierung von Isopenicillin N (#28 u 36) mit PaCoA (HH ⌀ mm): 30.8 mm
PAT [4]; a) ohne Inhibitor, 60′, listed as Nr. 36
  Transacylierung von Isopenicillin N (#28 u 36) mit PaCoA (HH ⌀ mm): 28.7 mm
PAT [4]; a) ohne Inhibitor, s (sofort), listed as Nr. 36
  Transacylierung von Isopenicillin N (#28 u 36) mit PaCoA (HH ⌀ mm): 27.0 mm
PAT [4]; b) 2 mM Jodacetamid, 7′, listed as Nr. 36
  Transacylierung von Isopenicillin N (#28 u 36) mit PaCoA (HH ⌀ mm): 25.0 mm
PAT [4]; b) 2 mM Jodacetamid, 30′, listed as Nr. 36
  Transacylierung von Isopenicillin N (#28 u 36) mit PaCoA (HH ⌀ mm): 23.6 mm
PAT [4]; b) 2 mM Jodacetamid, 60′, listed as Nr. 36
  Transacylierung von Isopenicillin N (#28 u 36) mit PaCoA (HH ⌀ mm): 22.1 mm
PAT [4]; b) 2 mM Jodacetamid, s (sofort), listed as Nr. 36
  Transacylierung von Isopenicillin N (#28 u 36) mit PaCoA (HH ⌀ mm): 25.2 mm
PAT [4]; c) 2 mM PMSF, 7′, listed as Nr. 36
  Transacylierung von Isopenicillin N (#28 u 36) mit PaCoA (HH ⌀ mm): 27.2 mm
PAT [4]; c) 2 mM PMSF, 30′, listed as Nr. 36
  Transacylierung von Isopenicillin N (#28 u 36) mit PaCoA (HH ⌀ mm): 27.7 mm
PAT [4]; c) 2 mM PMSF, 60′, listed as Nr. 36
  Transacylierung von Isopenicillin N (#28 u 36) mit PaCoA (HH ⌀ mm): 26.7 mm
PAT [4]; c) 2 mM PMSF, s (sofort), listed as Nr. 36
  Transacylierung von Isopenicillin N (#28 u 36) mit PaCoA (HH ⌀ mm): 26.3 mm

## CC(=O)OCC1=C(C(=O)O)N2C(=O)[C@@H](NC(=O)CCC[C@@H](N)C(=O)O)[C@H]2SC1 [Cephalosporin C]
PAT [1]; [5]
  mittels HPLC bestimmte spezifische Enzymaktivität (mU/mg Protein) A1 278/2: 0 mU/mg Protein

## CC1(C)S[C@@H]2[C@H](NC(=O)CCC[C@H](N)C(=O)O)C(=O)N2[C@H]1C(=O)O [Isopenicillin N Nr. 28, Isopenicillin N]
[2]; Micrococcus luteus, ATCC9341, 15 h, read-out: HH ⌀ mm, Isopenicillin N Std. 12.5 µg/ml
  zone of inhibition at 12.5 µg/mL: 12.4 mm
[2]; Micrococcus luteus, ATCC9341, 15 h, read-out: HH ⌀ mm, Isopenicillin N Std. 25 µg/ml
  zone of inhibition at 25 µg/mL: 16.5 mm
[2]; Micrococcus luteus, ATCC9341, 15 h, read-out: HH ⌀ mm, Isopenicillin N Std. 50 µg/ml
  zone of inhibition at 50 µg/mL: 20 mm
PAT [4]; a) ohne Inhibitor, 7′, listed as Nr. 28
  Transacylierung von Isopenicillin N (#28 u 36) mit PaCoA (HH ⌀ mm): 25.5 mm
PAT [4]; a) ohne Inhibitor, 30′, listed as Nr. 28
  Transacylierung von Isopenicillin N (#28 u 36) mit PaCoA (HH ⌀ mm): 26.0 mm
PAT [4]; a) ohne Inhibitor, 60′, listed as Nr. 28
  Transacylierung von Isopenicillin N (#28 u 36) mit PaCoA (HH ⌀ mm): 23.0 mm
PAT [4]; a) ohne Inhibitor, s (sofort), listed as Nr. 28
  Transacylierung von Isopenicillin N (#28 u 36) mit PaCoA (HH ⌀ mm): 22.5 mm
PAT [4]; b) 2 mM Jodacetamid, 7′, listed as Nr. 28
  Transacylierung von Isopenicillin N (#28 u 36) mit PaCoA (HH ⌀ mm): 20.8 mm
PAT [4]; b) 2 mM Jodacetamid, 30′, listed as Nr. 28
  Transacylierung von Isopenicillin N (#28 u 36) mit PaCoA (HH ⌀ mm): 18.3 mm
PAT [4]; b) 2 mM Jodacetamid, 60′, listed as Nr. 28
  Transacylierung von Isopenicillin N (#28 u 36) mit PaCoA (HH ⌀ mm): 14.7 mm
PAT [4]; b) 2 mM Jodacetamid, s (sofort), listed as Nr. 28
  Transacylierung von Isopenicillin N (#28 u 36) mit PaCoA (HH ⌀ mm): 21.1 mm
PAT [4]; c) 2 mM PMSF, 7′, listed as Nr. 28
  Transacylierung von Isopenicillin N (#28 u 36) mit PaCoA (HH ⌀ mm): 24.7 mm
PAT [4]; c) 2 mM PMSF, 30′, listed as Nr. 28
  Transacylierung von Isopenicillin N (#28 u 36) mit PaCoA (HH ⌀ mm): 25.7 mm
PAT [4]; c) 2 mM PMSF, 60′, listed as Nr. 28
  Transacylierung von Isopenicillin N (#28 u 36) mit PaCoA (HH ⌀ mm): 20.7 mm
PAT [4]; c) 2 mM PMSF, s (sofort), listed as Nr. 28
  Transacylierung von Isopenicillin N (#28 u 36) mit PaCoA (HH ⌀ mm): 22.7 mm

## 7-Glutaryl-APA
PAT [1]; [7]
  mittels HPLC bestimmte spezifische Enzymaktivität (mU/mg Protein) A1 278/2: 106 mU/mg Protein

## CC1(C)S[C@@H]2[C@H](NC(=O)CCC[C@H](N)C(=O)O)C(=O)N2[C@H]1C(=O)O [Isopenicillin N]
PAT [1]; [5]
  mittels HPLC bestimmte spezifische Enzymaktivität (mU/mg Protein) A1 278/2: 146 mU/mg Protein
PAT [1]; [6]
  mittels HPLC bestimmte spezifische Enzymaktivität (mU/mg Protein) A1 278/2: 80 mU/mg Protein
PAT [1]; [7]
  mittels HPLC bestimmte spezifische Enzymaktivität (mU/mg Protein) A1 278/2: 150 mU/mg Protein

— EP0336446A1, “Gene and gene product for the production of beta-lactam-compounds” (BIOCHEMIE GESELLSCHAFT M.B.H., priority 1988, dated 1989)
